# Measurements taken from patent publication US10294202B2, “Pyrrolidinones as herbicides” (FMC Corporation, priority 2013, dated 2019).
# What was measured:
# corn = assay: Test A pre-/postemergence herbicide test; format: in vivo, Zea mays; conditions: Postemergence
# Outline: (§1)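 Directed soil spray to seeded pots (preemergence) or spray onto one- to two-leaf seedlings 2–10 cm tall (postemergence); loam/sand substrate throughout. Evaluated visually after about 10 days against untreated plants, 0 = no effect, 100 = complete control.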
# pigweed [1] = assay: Test A pre-/postemergence herbicide test; format: in vivo, Amaranthus retroflexus
# Outline: as §1
# giant foxtail = assay: Test A pre-/postemergence herbicide test; format: in vivo, Setaria faberii
# Outline: as §1
# nutsedge, yellow = assay: Test C pre-/postemergence herbicide test; format: in vivo, Cyperus esculentus
# Outline: (§2)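 Two application timings ran in parallel with identically formulated test chemicals (non-phytotoxic solvent, surfactant included): spray on seeded loam–sand soil, and spray on emerged plants 2 to 18 cm high. Evaluation at 13 to 15 days compared each species with controls, rated from 0 up to 100.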
# galium = assay: Test C pre-/postemergence herbicide test; format: in vivo, Galium aparine
# Outline: as §2
# johnsongrass = assay: Test C pre-/postemergence herbicide test; format: in vivo, Sorghum halepense
# Outline: as §2
# waterhemp = assay: Test C pre-/postemergence herbicide test; format: in vivo, Amaranthus rudis
# Outline: as §2
# ragweed = assay: Test C pre-/postemergence herbicide test; format: in vivo, Ambrosia elatior
# Outline: as §2
# pigweed [2] = assay: Test C pre-/postemergence herbicide test; format: in vivo, Amaranthus retroflexus
# Outline: as §2
# ryegrass, Italian = assay: Test C pre-/postemergence herbicide test; format: in vivo, Lolium multiflorum
# Outline: as §2
# rice = assay: Test B flooded paddy test; format: in vivo, Oryza sativa; conditions: 500 g ai/ha, Flood; scale of 0 to 100 where 0 is no effect and 100 is complete control
# Outline: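 Treatment was made at the 2-leaf stage by dosing the standing floodwater, kept 3 cm above soil level for the whole test. Greenhouse exposure lasted 13 to 15 days. Response is a visual percent rating relative to controls, where a dash indicates no test result.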
# [3] = 125 g ai/ha, 0 to 100 scale, 0 is no effect, 100 is complete control
# [4] = 125 g ai/ha, visual rating, 0 to 100 scale, 0 no effect, 100 complete control, approximately 10 days, preemergence
# [5] = Postemergence, 125 g ai/ha, 0 to 100 scale, 0 is no effect, 100 is complete control
# [6] = preemergence, 500 g ai/ha, 0 to 100 scale, 0 is no effect and 100 is complete control
# [7] = Preemergence, 31 g ai/ha, scale 0 to 100, 0 is no effect and 100 is complete control
# [8] = Preemergence, 62 g ai/ha, scale 0 to 100 (0 no effect, 100 complete control)
# [9] = Preemergence, 125 g ai/ha, scale 0 to 100 (0 no effect, 100 complete control)
# [10] = Postemergence, 125 g ai/ha, visual rating on 0 to 100 scale (0 no effect, 100 complete control), approx. 10 days
# [11] = Postemergence, 500 g ai/ha, 0 to 100 scale (0 no effect, 100 complete control)
# [12] = Preemergence, 125 g ai/ha, 0 to 100 scale where 0 is no effect and 100 is complete control
# [13] = Preemergence, 500 g ai/ha, visual rating on 0 to 100 scale (0 no effect, 100 complete control)
# [14] = Preemergence, 125 g ai/ha, scale 0 to 100
# [15] = Postemergence, 31 g ai/ha, scale 0 to 100 (0 no effect, 100 complete control)
# [16] = Postemergence, 62 g ai/ha, scale 0 (no effect) to 100 (complete control)
# [17] = Postemergence, 125 g ai/ha, scale 0 to 100 (0 no effect, 100 complete control)
# [18] = Postemergence, 250 g ai/ha, scale 0 to 100 (0 no effect, 100 complete control)
smiles,measurement,setting,value
O=C1NCC(c2ccc(Cl)cc2)C1C(=O)Nc1cccc(F)c1F (stereo not drawn) [Compound 218],"Plant response rating, Corn",corn; [3],20
same,"Corn plant response rating (0 to 100 scale, 0 is no effect, 100 is complete control)",corn; 500 g ai/ha,30
same,"Plant response rating, Pigweed",pigweed [1]; [4],30
same,"Plant response rating, Pigweed",pigweed [1]; [5],0
same,"Pigweed plant response rating (0 to 100 scale, 0 is no effect, 100 is complete control)","pigweed [1]; Postemergence, 500 g ai/ha",40
same,"Plant response rating, Pigweed",pigweed [1]; [6],70
same,"Plant response rating, Foxtail, Giant",giant foxtail; [4],90
same,"Plant response rating, Foxtail, Giant",giant foxtail; [5],60
same,"Foxtail, Giant plant response rating (0 to 100 scale, 0 is no effect, 100 is complete control)","giant foxtail; Postemergence, 500 g ai/ha",90
same,"Plant response rating, Foxtail, Giant",giant foxtail; [6],90
same,"Nutsedge, Yellow plant response rating","nutsedge, yellow; [7]",0
same,"Nutsedge, Yellow plant response rating","nutsedge, yellow; [8]",0
same,"Plant response rating, Nutsedge, Yellow","nutsedge, yellow; [9]",0
same,"Plant response rating (scale of 0 to 100), Nutsedge, Yellow","nutsedge, yellow; Preemergence, 250 g ai/ha",0
same,Galium plant response rating,galium; [7],0
same,Galium plant response rating,galium; [8],0
same,"Plant response rating, Galium",galium; [9],85
same,"Plant response rating (scale of 0 to 100), Galium","galium; Preemergence, 250 g ai/ha",90
same,Johnsongrass plant response rating,johnsongrass; [7],0
same,Johnsongrass plant response rating,johnsongrass; [8],10
same,"Plant response rating, Johnsongrass",johnsongrass; [9],15
same,"Plant response rating (scale of 0 to 100), Johnsongrass","johnsongrass; Preemergence, 250 g ai/ha",40
same,Waterhemp plant response rating,waterhemp; [7],30
same,Waterhemp plant response rating,waterhemp; [8],75
same,"Plant response rating, Waterhemp",waterhemp; [9],90
same,"Plant response rating (scale of 0 to 100), Waterhemp","waterhemp; Preemergence, 250 g ai/ha",90
same,Ragweed plant response rating,ragweed; [7],40
same,Ragweed plant response rating,ragweed; [8],35
same,"Plant response rating, Ragweed",ragweed; [9],50
same,"Plant response rating (scale of 0 to 100), Ragweed","ragweed; Preemergence, 250 g ai/ha",85
same,Pigweed plant response rating,pigweed [2]; [7],5
same,Pigweed plant response rating,pigweed [2]; [8],50
same,"Plant response rating, Pigweed",pigweed [2]; [9],75
same,"Plant response rating (scale of 0 to 100), Pigweed","pigweed [2]; Preemergence, 250 g ai/ha",85
same,"Ryegrass, Italian plant response rating","ryegrass, Italian; [7]",0
same,"Ryegrass, Italian plant response rating","ryegrass, Italian; [8]",0
same,"Plant response rating, Ryegrass, Italian","ryegrass, Italian; [9]",0
same,"Plant response rating (scale of 0 to 100), Ryegrass, Italian","ryegrass, Italian; Preemergence, 250 g ai/ha",50
same,"Plant response rating, Rice",rice,0
CC(C)c1cccc(C2CNC(=O)C2C(=O)Nc2ccccc2F)c1 (stereo not drawn) [Compound 318],"Plant response rating, Corn","corn; 125 g ai/ha, visual rating on 0 to 100 scale (0 no effect, 100 complete control), approx. 10 days",20
same,"Plant response rating, Corn","corn; 500 g ai/ha, 0 to 100 scale (0 no effect, 100 complete control)",50
same,"Plant response rating, Pigweed",pigweed [1]; [10],20
same,"Plant response rating, Pigweed",pigweed [1]; [11],20
same,"Plant response rating, Pigweed",pigweed [1]; [12],0
same,Pigweed plant response rating,pigweed [1]; [13],20
same,"Plant response rating, Foxtail, Giant",giant foxtail; [10],40
same,"Plant response rating, Foxtail, Giant",giant foxtail; [11],70
same,"Plant response rating, Foxtail, Giant",giant foxtail; [12],90
same,"Foxtail, Giant plant response rating",giant foxtail; [13],90
same,"Nutsedge, Yellow plant response rating","nutsedge, yellow; [7]",0
same,"Nutsedge, Yellow plant response rating","nutsedge, yellow; [8]",0
same,"Plant response rating, Nutsedge, Yellow","nutsedge, yellow; [14]",0
same,"Plant response rating (scale of 0 to 100), Nutsedge, Yellow","nutsedge, yellow; Preemergence, 250 g ai/ha",0
same,Galium plant response rating,galium; [7],0
same,Galium plant response rating,galium; [8],0
same,"Plant response rating, Galium",galium; [14],40
same,"Plant response rating (scale of 0 to 100), Galium","galium; Preemergence, 250 g ai/ha",100
same,Johnsongrass plant response rating,johnsongrass; [7],0
same,Johnsongrass plant response rating,johnsongrass; [8],0
same,"Plant response rating, Johnsongrass",johnsongrass; [14],45
same,"Plant response rating (scale of 0 to 100), Johnsongrass","johnsongrass; Preemergence, 250 g ai/ha",60
same,Waterhemp plant response rating,waterhemp; [8],30
same,"Plant response rating, Waterhemp",waterhemp; [14],10
same,Ragweed plant response rating,ragweed; [8],0
same,"Plant response rating, Ragweed",ragweed; [14],0
same,Pigweed plant response rating,pigweed [2]; [7],0
same,Pigweed plant response rating,pigweed [2]; [8],20
same,"Plant response rating, Pigweed",pigweed [2]; [14],20
same,"Ryegrass, Italian plant response rating","ryegrass, Italian; [8]",0
same,"Plant response rating, Ryegrass, Italian","ryegrass, Italian; [14]",0
same,"Plant response rating, Rice",rice,15
O=C1NCC(c2cccc(OC(F)F)c2)C1C(=O)Nc1cccc(F)c1F (stereo not drawn) [Compound 224],"Plant response rating, Corn",corn; [3],60
same,"Corn plant response rating (0 to 100 scale, 0 is no effect, 100 is complete control)",corn; 500 g ai/ha,80
same,"Plant response rating, Pigweed",pigweed [1]; [4],80
same,"Plant response rating, Pigweed",pigweed [1]; [5],60
same,"Pigweed plant response rating (0 to 100 scale, 0 is no effect, 100 is complete control)","pigweed [1]; Postemergence, 500 g ai/ha",80
same,"Plant response rating, Pigweed",pigweed [1]; [6],80
same,"Plant response rating, Foxtail, Giant",giant foxtail; [4],90
same,"Plant response rating, Foxtail, Giant",giant foxtail; [5],80
same,"Foxtail, Giant plant response rating (0 to 100 scale, 0 is no effect, 100 is complete control)","giant foxtail; Postemergence, 500 g ai/ha",80
same,"Plant response rating, Foxtail, Giant",giant foxtail; [6],90
same,"Plant response rating, Nutsedge, Yellow","nutsedge, yellow; [15]",0
same,"Plant response rating, Nutsedge, Yellow","nutsedge, yellow; [16]",0
same,"Plant response rating, Nutsedge, Yellow","nutsedge, yellow; [17]",0
same,"Plant response rating, Nutsedge, Yellow","nutsedge, yellow; [18]",0
same,"Nutsedge, Yellow plant response rating","nutsedge, yellow; [7]",0
same,"Nutsedge, Yellow plant response rating","nutsedge, yellow; [8]",10
same,"Plant response rating, Nutsedge, Yellow","nutsedge, yellow; [9]",0
same,"Plant response rating (scale of 0 to 100), Nutsedge, Yellow","nutsedge, yellow; Preemergence, 250 g ai/ha",0
same,"Plant response rating, Galium",galium; [15],5
same,"Plant response rating, Galium",galium; [16],45
same,"Plant response rating, Galium",galium; [17],60
same,"Plant response rating, Galium",galium; [18],85
same,Galium plant response rating,galium; [7],0
same,Galium plant response rating,galium; [8],40
same,"Plant response rating, Galium",galium; [9],85
same,"Plant response rating (scale of 0 to 100), Galium","galium; Preemergence, 250 g ai/ha",85
same,"Plant response rating, Johnsongrass",johnsongrass; [15],0
same,"Plant response rating, Johnsongrass",johnsongrass; [16],0
same,"Plant response rating, Johnsongrass",johnsongrass; [17],15
same,"Plant response rating, Johnsongrass",johnsongrass; [18],25
same,Johnsongrass plant response rating,johnsongrass; [7],0
same,Johnsongrass plant response rating,johnsongrass; [8],35
same,"Plant response rating, Johnsongrass",johnsongrass; [9],75
same,"Plant response rating (scale of 0 to 100), Johnsongrass","johnsongrass; Preemergence, 250 g ai/ha",85
same,"Plant response rating, Waterhemp",waterhemp; [15],25
same,"Plant response rating, Waterhemp",waterhemp; [16],35
same,"Plant response rating, Waterhemp",waterhemp; [17],30
same,"Plant response rating, Waterhemp",waterhemp; [18],30
same,Waterhemp plant response rating,waterhemp; [7],75
same,Waterhemp plant response rating,waterhemp; [8],5
same,"Plant response rating, Waterhemp",waterhemp; [9],70
same,"Plant response rating (scale of 0 to 100), Waterhemp","waterhemp; Preemergence, 250 g ai/ha",80
same,"Plant response rating, Ragweed",ragweed; [15],20
same,"Plant response rating, Ragweed",ragweed; [16],65
same,"Plant response rating, Ragweed",ragweed; [17],45
same,"Plant response rating, Ragweed",ragweed; [18],80
same,Ragweed plant response rating,ragweed; [7],10
same,Ragweed plant response rating,ragweed; [8],40
same,"Plant response rating, Ragweed",ragweed; [9],100
same,"Plant response rating (scale of 0 to 100), Ragweed","ragweed; Preemergence, 250 g ai/ha",100
same,"Plant response rating, Pigweed",pigweed [2]; [15],40
same,"Plant response rating, Pigweed",pigweed [2]; [16],55
same,"Plant response rating, Pigweed",pigweed [2]; [17],60
same,"Plant response rating, Pigweed",pigweed [2]; [18],65
same,Pigweed plant response rating,pigweed [2]; [7],0
same,Pigweed plant response rating,pigweed [2]; [8],25
same,"Plant response rating, Pigweed",pigweed [2]; [9],60
same,"Plant response rating (scale of 0 to 100), Pigweed","pigweed [2]; Preemergence, 250 g ai/ha",85
same,"Plant response rating, Ryegrass, Italian","ryegrass, Italian; [15]",0
same,"Plant response rating, Ryegrass, Italian","ryegrass, Italian; [16]",0
same,"Plant response rating, Ryegrass, Italian","ryegrass, Italian; [17]",5
same,"Plant response rating, Ryegrass, Italian","ryegrass, Italian; [18]",5
same,"Ryegrass, Italian plant response rating","ryegrass, Italian; [7]",0
same,"Ryegrass, Italian plant response rating","ryegrass, Italian; [8]",0
same,"Plant response rating, Ryegrass, Italian","ryegrass, Italian; [9]",0
same,"Plant response rating (scale of 0 to 100), Ryegrass, Italian","ryegrass, Italian; Preemergence, 250 g ai/ha",15
same,"Plant response rating, Rice",rice,0
